Results: US20100179188A1, “NITROXIDE RADICAL AS TREATMENT FOR NEURODEGENERATION” (Office of Technology Transfer, NIH, priority 2007, published 2010)

Tests used:
IRP2−/− mice = assay: Observation of other signs of neurodegeneration in IRP2−/− mice; type: in vivo; details: IRP2−/− mice supplemented with Tempo1
From the text: Background on Experimental Model: In the following examples, IRP2−/− mice are used to model neurodegerative disease. The neurodegeneration of IRP2−/− animals is characterized by progressive loss of motor capabilities, for example as measured in mice by performance on hang-tests, rotarod rotating drum treadmill testing, balance beams, climbing pole tests, allelerods, footprints, decreased grooming activities and gait abnormalities in adult animals. The neurodegeneration of IRP2−/− animals progresses slowly as animals age.
Diet: The mice were weaned 3-4 weeks after their birth. Immediately after weaning, mice were maintained on either a Tempo1-supplemented or control diet. In the Tempo1-supplemented diet, powdered Tempo1 was uniformly mixed with bacon-flavored mouse chow by a “cold press” technique (Bio-Serv, Frenchtown, N.J., USA) at a concentration of 10 mg/g of food. Bacon-flavored chow without Tempo1 was used as the control diet.

purified holo-IRP1 = biological target: T1, purified holo-IRP1 (Homo sapiens, UniProt P21399); assay: IRE gel shift assay on purified holo-IRP1; type: biochemical
T1 sequence (P21399 1-889): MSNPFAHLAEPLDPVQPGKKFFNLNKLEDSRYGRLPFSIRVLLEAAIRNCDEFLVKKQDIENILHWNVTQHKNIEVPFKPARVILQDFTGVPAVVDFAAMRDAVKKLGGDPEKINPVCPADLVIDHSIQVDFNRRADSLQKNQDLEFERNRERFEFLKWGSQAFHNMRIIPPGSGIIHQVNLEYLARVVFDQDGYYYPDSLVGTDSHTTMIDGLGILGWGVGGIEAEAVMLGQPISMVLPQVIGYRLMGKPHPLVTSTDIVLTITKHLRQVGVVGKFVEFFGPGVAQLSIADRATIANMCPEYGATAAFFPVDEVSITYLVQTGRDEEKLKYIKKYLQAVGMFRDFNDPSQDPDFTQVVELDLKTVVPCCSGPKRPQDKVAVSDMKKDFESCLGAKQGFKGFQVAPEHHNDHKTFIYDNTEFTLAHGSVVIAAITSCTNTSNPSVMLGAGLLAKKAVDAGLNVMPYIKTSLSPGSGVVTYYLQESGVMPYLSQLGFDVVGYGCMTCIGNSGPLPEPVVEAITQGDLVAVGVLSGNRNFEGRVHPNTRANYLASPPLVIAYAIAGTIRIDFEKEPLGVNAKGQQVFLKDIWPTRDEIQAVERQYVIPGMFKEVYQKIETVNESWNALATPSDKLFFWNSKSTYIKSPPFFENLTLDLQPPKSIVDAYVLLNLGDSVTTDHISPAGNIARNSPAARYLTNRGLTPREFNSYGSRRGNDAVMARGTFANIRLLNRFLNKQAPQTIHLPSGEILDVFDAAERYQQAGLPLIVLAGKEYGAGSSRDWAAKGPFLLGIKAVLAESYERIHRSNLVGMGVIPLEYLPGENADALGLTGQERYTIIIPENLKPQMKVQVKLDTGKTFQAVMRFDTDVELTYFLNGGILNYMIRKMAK
Protocol: RNA mobility shift assays: Gel retardation assays were performed as described in Meyron-Holtz et al., EMBO J, 23, 386-395 (2004). Tissue lysates were prepared in an anaerobic chamber as described above in oxygen-depleted lysis buffer containing 10 mM HEPES (pH 7.2), 3 mM MgC12, 40 mM KCl, 5% glycerol, 0.2% Nonidet P-40, 5 mM DTT, 1 mM AEBSF, 10 μg/ml. Leupeptin and complete TM EDTA free protease inhibitor cocktail (Roche Applied Science, Indiana). Lysate (x μl) containing 10 μg of total protein was added to (12.5−x) μl of bandshift buffer containing 25 mM Tris-HCl (pH 7.5) and 40 mM KCl. The samples were incubated for 5 min at room temperature (RT) with 12.5 μl of a reaction cocktail containing 20% glycerol, 0.2 U/μl Super RNAsine (Ambion, Tex.), 0.6 μg/μl yeast t-RNA, 5 mM DTT and 20 nM 32P-labelled IRE from human ferritin H-chain gene in 25 mM Tris-HCl (pH 7.5) and 40 mM KCl. A measure of 20 μl of this reaction mixture was loaded into a 10% acrylamide/TBE gel, which was run at 200 V for 2.15 h, and then the gel was fixed, dried and exposed for autoradiography.
Soum et al., J. Biol Inorg Chem, 8, 226-232 (2003). IRE-binding activity of purified holo-IRP1 (11 ng) was assessed by an IRE gel shift assay. Purified protein (11 ng) was incubated with 0.1% β-mercaptoethanol for 2 h at room temperature without (lane 1) or with (lane 2) 1 mM tempol. Sample in lane 3 was treated with 2% β-mercaptoethanol for 2 min after 2 h incubation without tempol.

TfR1 = assay: Western blot of TfR1 in IRP2−/− embryonic fibroblasts; type: cell-based, mouse; details: 0.3 and 1.0 mM, 16 h, with or without FAC
Protocol: Cells: Embryonic fibroblasts of 13-day old embryos were isolated from wild type, IRP1−/− mice and IRP2−/− mice as described in LaVaute et al. supra. Myc-tagged HEK 293 Tet-on cell line, in which IRP2 expression was inducible, was prepared and cultured as described Bourdon et al., Blood Cells Mol Dis, 31, 247-255 (2003). Erythroblasts were harvested from bone marrow and purified as described in Cooperman et al., Blood, 106, 1084-1091 (2005).
Western blotting and antibodies: Protein analysis was carried out as described in LaVaute et al., supra. Equal amounts of protein (20-40 μg/lane) were separated on 13% SDSPAGE and transferred to nitrocellulose membranes. The membrane was blocked with 5% non-fat milk, 0.1% Triton X-100 in PBS and probed at RT in the same blocking buffer. IRP1 antibody was prepared against purified hIRP1 and used at 1:5000 dilution. L-ferritin antibody was raised in rabbit from L-ferritin protein purified from mouse livers. […]
To study the effect of Tempo1 on the IRE-binding activity of IRP1, IRP2−/− embryonic fibroblasts that were maintained in culture supplemented with 0, 0.3 and 1.0 mM Tempo1, with or without ferric ammonium citrate (FAC), for 16 h. […] Quantification was performed with the IQMac (IRP1 activity) or NIH Image (protein levels) program. Error bars represent the standard deviation calculated from the results of two different sets of experiments.

SMILES: CC1(C)CC(O)CC(C)(C)N1[O] [Tempo1]
- other signs of neurodegeneration (movement disorders, tremor, abnormalities of gait and grooming) (IRP2−/− mice): did not develop
- recruitment of IRE-binding activity (purified holo-IRP1; holo-IRP1, 1.0 mM, 3 h at 37° C., FIG. 6b): almost completely recruited
- IRE binding activity vs IRP1 exposed to room air alone (purified holo-IRP1; purified holo-IRP1, 2 h at room temperature and 3 h at 37° C.): much higher
- IRE binding activity of IRP1 (purified holo-IRP1; purified holo-IRP1 treated with Tempo1): increased
- TfR1 levels (TfR1): increased
